Experimental data reported in US4407806A, “Fungicidal, herbicidal and plant growth regulating pyridyl-containing ethers” (Chevron Research Company, priority 1981, dated 1983).

How the values were obtained:
Assay type in all cases: in vivo
[1] = test system: tomato Early Blight organism, Alternaria solani conidia; assay: Tomato Early Blight control; conditions: 288 h, about 12 days in greenhouse, vs untreated check, read-out: Fungicidal Activity Control %, Tomato E.B.
Method: Compounds of the invention were tested for the control of the tomato Early Blight organism, Alternaria solani conidia. Tomato (variety Bonny Best) seedlings of 6 to 7 weeks old were used. The tomato plants were sprayed with a 250 ppm solution of the test compound in an acetone-and-water solution containing a small amount of a nonionic emulsifier. The sprayed plants were inoculated one day later with the organism, placed in the environmental chamber and incubated at […] and 100% relative humidity for 24 hours. Following the incubation, the plants were maintained in a greenhouse for about 12 days. Percent diseases control was based on the percent disease development on untreated check plants.

[2] = test system: Lambsquarter (Chenopodium album); assay: Pre-emergent herbicidal test; conditions: 504 h, pre-emergence, 33 micrograms/cm^2, 3 weeks, 0-to-100 scale, read-out: Herbicidal Activity Pre-Emergence % Control, L'Qtr.
Method: (§1) An acetone solution of the test compound was prepared by mixing 750 mg of the compound, 220 mg of a nonionic surfactant and 25 ml of acetone. This solution was added to approximately 125 ml of water containing 156 mg of surfactant.
(§2) Seeds of the test vegetation were planted in a pot of […] and the test solution was sprayed uniformly onto the soil surface at a dose of 33 micrograms/cm^2. The pot was watered and placed in a greenhouse. […] At the end of this period, the herbicidal effectiveness of the compound was rated based on the physiological observations. A 0-to-100 scale was used, 0 representing no phytotoxicity, 100 representing complete kill.

[3] = test system: Crabgrass (Digitaria sanguinalis); assay: Pre-emergent herbicidal test; conditions: 504 h, pre-emergence, 33 micrograms/cm^2, 3 weeks, 0-to-100 scale, read-out: Herbicidal Activity Pre-Emergence % Control, Crab Grass
Method: as §1, §2

Wild Oats (Avena fatura) [4] = assay: Pre-emergent herbicidal test; conditions: 504 h, pre-emergence, 33 micrograms/cm^2, 3 weeks, 0-to-100 scale
Method: as §1, §2

Soybean [5] = assay: Pre-emergent herbicidal test; conditions: Glycine max, 504 h; pre-emergence; 33 micrograms/cm^2; 3 weeks; 0-to-100 scale; read-out: Herbicidal Activity Pre-Emergence % Control, Soybean
Method: as §1, §2

[6] = test system: Mustard (Brassica arvensis); assay: Pre-emergent herbicidal test; conditions: 504 h, pre-emergence, 33 micrograms/cm^2, 3 weeks, 0-to-100 scale
Method: as §1, §2

[7] = test system: Pigweed (Amaranthus retraflexus); assay: Pre-emergent herbicidal test; conditions: 504 h, pre-emergence, 33 micrograms/cm^2, 3 weeks, 0-to-100 scale
Method: as §1, §2

[8] = test system: Watergrass (Echinochloa crusgalli); assay: Pre-emergent herbicidal test; conditions: Echinochloa crus-galli, 504 h; pre-emergence; 33 micrograms/cm^2; 3 weeks; 0-to-100 scale; read-out: Herbicidal Activity Pre-Emergence % Control, Water Grass
Method: as §1, §2

[9] = test system: Lambsquarter (Chenopodium album); assay: Post-emergent herbicidal test; conditions: 504 h, post-emergence, 33 micrograms/cm^2, 3 weeks, 0-to-100 scale, read-out: Herbicidal Activity Post-Emergence % Control, L'Qtr.
[10] = test system: Crabgrass (Digitaria sanguinalis); assay: Post-emergent herbicidal test; conditions: 504 h, post-emergence, 33 micrograms/cm^2, 3 weeks, 0-to-100 scale, read-out: Herbicidal Activity Post-Emergence % Control, Crab Grass
Wild Oats (Avena fatura) [11] = assay: Post-emergent herbicidal test; conditions: 504 h, post-emergence, 33 micrograms/cm^2, 3 weeks, 0-to-100 scale
Soybean [12] = assay: Post-emergent herbicidal test; conditions: Glycine max, 504 h, post-emergence, 33 micrograms/cm^2, 3 weeks, 0-to-100 scale, read-out: Herbicidal Activity Post-Emergence % Control, Soybean
[13] = test system: Mustard (Brassica arvensis); assay: Post-emergent herbicidal test; conditions: 504 h, post-emergence, 33 micrograms/cm^2, 3 weeks, 0-to-100 scale
[14] = test system: Pigweed (Amaranthus retraflexus); assay: Post-emergent herbicidal test; conditions: 504 h, post-emergence, 33 micrograms/cm^2, 3 weeks, 0-to-100 scale
[15] = test system: Watergrass (Echinochloa crusgalli); assay: Post-emergent herbicidal test; conditions: Echinochloa crus-galli, 504 h, post-emergence, 33 micrograms/cm^2, 3 weeks, 0-to-100 scale, read-out: Herbicidal Activity Post-Emergence % Control, Water Grass
[16] = test system: Bean Powdery Mildew organism Erisiphe polygoni; assay: Bean Powdery Mildew control; conditions: 240 h, 10 days, vs untreated check, read-out: Fungicidal Activity Control %, Bean P.M.
Method: The compounds of the invention were tested for the control of the Bean Powdery Mildew organism […] polygoni. Seedling bean plants were sprayed with a 250 ppm solution of the test compound in acetone, water and a nonionic emulsifier. The sprayed plants were then inoculated 1 day later with organism. […] The percent disease control provided by a given test compound was based on the percent disease reduction relative to the untreated check plants.

[17] = test system: celery late blight organism Septoria apii; assay: whole plant or invertebrate; conditions: 336 h, read-out: Fungicidal Activity Control %, Celery L.B.
[18] = test system: grape downy mildew organism Plasmopara viticola; assay: Grape Downy Mildew control (detached grape leaves); conditions: vs untreated check, read-out: Fungicidal Activity Control %, Grape D.M.
[19] = test system: Tomato Late Blight organism Phytophthora infestans; assay: whole plant or invertebrate; conditions: 168 h, read-out: Fungicidal Activity Control %, Tomato L.B.
Cotton plants = assay: Cotton Regrowth; conditions: Gossypium hirsutum, 13 to 18 days, 100% is total inhibition, read-out: Regrowth (percent inhibition of cotton regrowth)
Method: Compounds of this invention were tested to determine their plant-growth regulating effects on cotton leaf regrowth.
Cotton plants, 4 to 5 weeks old, containing 4 true leaves above the cotyledonary leaves are employed. Growth beyond the second true leaf was removed. Within 24 hours the plants are sprayed with a 2000 ppm solution of the test compound. After spraying, the plants are transferred to a greenhouse maintained at 85° F. (±5° F.) and incubated there for from 13 to 18 days. The plants during this period are sub-irrigated in 1/4" of water.
After this period, regrowth is determined as a percent inhibition of auxiliary bud regrowth--100% is total inhibition while 0% is no inhibition.

Idaho pinto bean plants = assay: Axillary Bud Growth Inhibition Of Pinto Bean Plants; conditions: 288 h; 625-ppm; twelve days after treatment; vs untreated check; read-out: Bud Inhib (percent inhibition of axillary bud growth)
Method: Compounds of this invention were tested to determine their plant-growth-retarding effects on axillary bud growth of pinto beans.
Idaho pinto bean plants (13-16 days old) having monofoliate leaves fully developed and first trifoliates beginning to unfold were used. All growth 5 mm above the monofoliate leaf node was removed with forceps 1 to 4 hours prior to treatment with the test compounds. Four plants were used for each test compound.
A 625-ppm solution of the test compound in a 2% aqueous acetone solution containing a small amount of a nonionic surfactant was sprayed onto the pinto bean plants until runoff. After drying, the treated plants were transferred to a greenhouse maintained at 20°-23° C. and watered at regular intervals. Twelve days after treatment, the bud growth at the axil of the monofoliate leaf was determined and expressed as percent inhibition of axillary bud growth as compared to untreated check plants.

## FC(F)(F)c1cccc(COC(c2ccccc2)c2cccnc2)c1 (stereo not drawn) [Compound 8]
[1]
  pest or weed control at 250 ppm: 25%
[2]
  pest or weed control at 33 µg/cm2: 0%
[3]
  pest or weed control at 33 µg/cm2: 0%
Wild Oats (Avena fatura) [4]
  pest or weed control at 33 µg/cm2: 0%
Soybean [5]
  plant injury at 33 µg/cm2: 0%
[6]
  pest or weed control at 33 µg/cm2: 0%
[7]
  pest or weed control at 33 µg/cm2: 0%
[8]
  pest or weed control at 33 µg/cm2: 0%
[9]
  pest or weed control at 5000 ppm, 33 µg/cm2: 40%
[10]
  pest or weed control at 5000 ppm, 33 µg/cm2: 0%
Wild Oats (Avena fatura) [11]
  pest or weed control at 5000 ppm, 33 µg/cm2: 0%
Soybean [12]
  plant injury at 5000 ppm, 33 µg/cm2: 25%
[13]
  pest or weed control at 5000 ppm, 33 µg/cm2: 50%
[14]
  pest or weed control at 5000 ppm, 33 µg/cm2: 50%
[15]
  pest or weed control at 5000 ppm, 33 µg/cm2: 0%
[16]
  pest or weed control at 250 ppm: 100%
[17]
  pest or weed control at 250 ppm: 38%
[18]
  pest or weed control at 250 ppm: 0%
[19]
  pest or weed control at 250 ppm: 0%
Cotton plants
  inhibition at 2000 ppm: 65%
Idaho pinto bean plants
  pest or weed control at 625 µg/mL: 60%

## FC(F)(F)c1cccc(COC(c2cccnc2)c2ccc(Cl)cc2Cl)c1 (stereo not drawn) [Compound 5, 3-pyridyl-2,4-dichlorophenylcarbinol 3-trifluoromethylbenzylether]
[1]
  pest or weed control at 250 ppm: 71%
[2]
  pest or weed control at 33 µg/cm2: 25%
[3]
  pest or weed control at 33 µg/cm2: 70%
Wild Oats (Avena fatura) [4]
  pest or weed control at 33 µg/cm2: 15%
Soybean [5]
  plant injury at 33 µg/cm2: 30%
[6]
  pest or weed control at 33 µg/cm2: 25%
[7]
  pest or weed control at 33 µg/cm2: 45%
[8]
  pest or weed control at 33 µg/cm2: 55%
[9]
  pest or weed control at 5000 ppm, 33 µg/cm2: 63%
[10]
  pest or weed control at 5000 ppm, 33 µg/cm2: 0%
Wild Oats (Avena fatura) [11]
  pest or weed control at 5000 ppm, 33 µg/cm2: 0%
Soybean [12]
  plant injury at 5000 ppm, 33 µg/cm2: 30%
[13]
  pest or weed control at 5000 ppm, 33 µg/cm2: 40%
[14]
  pest or weed control at 5000 ppm, 33 µg/cm2: 55%
[15]
  pest or weed control at 5000 ppm, 33 µg/cm2: 0%
[16]
  pest or weed control at 250 ppm: 100%
[17]
  pest or weed control at 250 ppm: 91%
[18]
  pest or weed control at 250 ppm: 12%
[19]
  pest or weed control at 250 ppm: 0%
Cotton plants
  inhibition at 2000 ppm: 65%
Idaho pinto bean plants
  pest or weed control at 625 µg/mL: 70%

## c1ccc(COC(c2ccccc2)c2cccnc2)cc1 (stereo not drawn) [Compound 7]
[1]
  pest or weed control at 250 ppm: 0%
[2]
  pest or weed control at 33 µg/cm2: 28%
[3]
  pest or weed control at 33 µg/cm2: 99%
Wild Oats (Avena fatura) [4]
  pest or weed control at 33 µg/cm2: 0%
Soybean [5]
  plant injury at 33 µg/cm2: 0%
[6]
  pest or weed control at 33 µg/cm2: 0%
[7]
  pest or weed control at 33 µg/cm2: 32%
[8]
  pest or weed control at 33 µg/cm2: 80%
[9]
  pest or weed control at 5000 ppm, 33 µg/cm2: 65%
[10]
  pest or weed control at 5000 ppm, 33 µg/cm2: 0%
Wild Oats (Avena fatura) [11]
  pest or weed control at 5000 ppm, 33 µg/cm2: 0%
Soybean [12]
  plant injury at 5000 ppm, 33 µg/cm2: 35%
[13]
  pest or weed control at 5000 ppm, 33 µg/cm2: 60%
[14]
  pest or weed control at 5000 ppm, 33 µg/cm2: 45%
[15]
  pest or weed control at 5000 ppm, 33 µg/cm2: 0%
[16]
  pest or weed control at 250 ppm: 100%
[17]
  pest or weed control at 250 ppm: 43%
[18]
  pest or weed control at 250 ppm: 0%
[19]
  pest or weed control at 250 ppm: 0%
Cotton plants
  inhibition at 2000 ppm: 90%
Idaho pinto bean plants
  pest or weed control at 625 µg/mL: 20%

## CC(C)(C)c1ccc(COC(c2cccnc2)c2ccc(Cl)cc2Cl)cc1 (stereo not drawn) [Compound 6, 3-pyridyl-2,4-dichlorophenylcarbinol 4-t-butylbenzylether]
[1]
  pest or weed control at 250 ppm: 40%
[2]
  pest or weed control at 33 µg/cm2: 15%
[3]
  pest or weed control at 33 µg/cm2: 68%
Wild Oats (Avena fatura) [4]
  pest or weed control at 33 µg/cm2: 25%
Soybean [5]
  plant injury at 33 µg/cm2: 0%
[6]
  pest or weed control at 33 µg/cm2: 20%
[7]
  pest or weed control at 33 µg/cm2: 35%
[8]
  pest or weed control at 33 µg/cm2: 65%
[9]
  pest or weed control at 5000 ppm, 33 µg/cm2: 60%
[10]
  pest or weed control at 5000 ppm, 33 µg/cm2: 0%
Wild Oats (Avena fatura) [11]
  pest or weed control at 5000 ppm, 33 µg/cm2: 0%
Soybean [12]
  plant injury at 5000 ppm, 33 µg/cm2: 35%
[13]
  pest or weed control at 5000 ppm, 33 µg/cm2: 25%
[14]
  pest or weed control at 5000 ppm, 33 µg/cm2: 55%
[15]
  pest or weed control at 5000 ppm, 33 µg/cm2: 0%
[16]
  pest or weed control at 250 ppm: 100%
[17]
  pest or weed control at 250 ppm: 78%
[18]
  pest or weed control at 250 ppm: 50%
[19]
  pest or weed control at 250 ppm: 0%
Cotton plants
  inhibition at 2000 ppm: 90%
Idaho pinto bean plants
  pest or weed control at 625 µg/mL: 60%
